# Patent US11065211B2, “Isoxylitones mediated neurogenesis” (priority 2018, dated 2021)
# What was measured:
# Format in all cases: cell-based, rat
# [1] = test system: co-cultured cortical (CTX-CoCul) cells; test: Growth supporting effect on co-cultures with BMSCs (phase contrast microscopy); details: 24 h, FIG. 2
# Method: (§1) Wistar rats (150-200 gm) were used to isolate bone marrow (BM). Rats were sacrificed and their femurs were removed aseptically. The bone marrow (BM) was flushed from the shaft of the bone by clipping of the epiphysial ends and flushing using a 26-gauge needle with ˜2 ml of Dulbecco's Modified Eagle's medium (DMEM) supplemented with 5% FBS, 1% penicillin/streptomycin solution, 1% sodium pyruvate and L-glutamine. The BM was then centrifuged for 8 minutes at 1000 rpm. Following centrifugation, cell pellet was collected and 1 ml of fresh DMEM was added. The cell viability was checked using trypan blue exclusion method. The cells were then divided into three equal parts. One part was co-cultured with freshly isolated hippocampal cells in T75 cm^2 flask, 2nd with freshly isolated cortical cells and the third portion (BM cells only) was cultured as a control. The cell density for co-cultures was set at 140,000 cells/ml for each type of culture. The cultured flasks were then incubated at 37° C. and 5% CO2. After 4-5 days, floating hematopoietic cells and dead debris/tissues of hippocampus and cortex were removed and bone marrow stromal cells (BMSCs) were recovered due to their tendency to adhere. Medium was replaced after every 3 to 4 days till cells became 80-90% confluent.
# (§2) To evaluate the growth supporting effect of isoxylitones the hippocampal, cortical and co-cultured cells were plated in 6-well plates and treated with 25 μg/mL, 50 μg/mL, 75 μg/mL and 150 μg/mL doses of isoxylitones. Cells with no treatment were set as a control. The plates were incubated for 24 and 72 hrs in a humidified chamber at 37° C. in 5% CO2. To assess the morphology of the treated cells, images were captured and digitalized with Nikon TE-2000 inverted microscope equipped with phase-contrast optics to measure the difference of control group from treated group. The cells were observed carefully in order to check if they maintain their morphological characteristics after treatment with the compound. The doses which supported the maximum proliferation were used for proliferation assays i.e., AlamarBlue and BrdU assay.
# [2] = test system: co-cultured hippocampal (HP-CoCul) cells; test: as above; details: 24 h, FIG. 2
# Method: as §1, §2
# Cocul-CTX cells = test: BrdU proliferation ELISA assay; details: 150 μg/ml, 24 h, FIG. 6
# Method: as §1, with “confluent. […]” for “confluent.”
# Cocul-HP cells = test: BrdU proliferation ELISA assay; details: 24 h, increase reported with 100 and 150 μg/mL, FIG. 6
# Method: as §1, with “confluent. […]” for “confluent.”
# hypoxic cortical cells = test: In-vitro model of hypoxic pre-conditioning; details: 2 h hypoxia then treatment at various concentrations, vs positive control hypoxic cells, FIG. 7
# [3] = test system: hypoxic hippocampal cells; test: In-vitro model of hypoxic pre-conditioning; details: 2 h hypoxia then treatment at various concentrations, vs positive control hypoxic cells, FIG. 7
# Method: In-vitro model of hypoxic cells was established by hypoxia chamber, which contain 5% carbon dioxide, 1% oxygen and 94% nitrogen. Isolated cortical and hippocampal cells from 1-2 days old rat pups were cultured in 75 cm flask in DMEM medium, after culturing cells were plated on 96 well plate at 7000-8000 viable cells per well and incubated in hypoxia chamber for 2 hour at 37° C. for hypoxic conditioning or oxygen deprivation. Following hypoxic shock, medium was replaced with fresh complete medium. Only cells without hypoxia were kept in normal condition as a control group while untreated hypoxic cells were kept as a positive control cells. Following two hours hypoxia the treatment of isoxylitones at various doses was given to hypoxic cells and MTT assay was used to determine the viability of cells in all treated and control cells. The absorbance of the plate was read by spectrophotometer at 570 nm wavelength.
smiles,measurement,setting,value
CC(=O)C=C1C=C(C)CC(C)(C)C1 (mixture of isomers) [isoxylitones],number of proliferating cells,[1],Marked increase
same,variation in morphology,[1],no significant variation in the morphology
same,number of proliferating cells,[2]; HP-CoCul cells,Marked increase
same,variation in morphology,[2]; HP-CoCul cells,no significant variation in the morphology
same,rate of proliferation in hippocampus cells as compared to cortical cells,[2]; co-cultured cells,almost double
same,BrdU positive cells,Cocul-CTX cells,increased BrdU positive cells
same,BrdU positive cells,Cocul-HP cells,significantly elevated the BrdU positive cells
same,recovery of hypoxic cells (phase-contrast morphology),hypoxic cortical cells,Recovery of hypoxic cells clearly observed
same,recovery of hypoxic cells (phase-contrast morphology),[3],Recovery of hypoxic cells clearly observed
